Laboratory results: patent US20050239842A1, “Methods of using and compositions comprising immunomodulatory compounds for the treatment and management of pulmonary hypertension” (priority 2004, published 2005)

Legend:
patients with PH [1] = test: Clinical Study 2 in PH patients, 12 weeks, placebo controlled; assay type: in vivo, human
Description: In one embodiment of the invention, 3-(4-amino-1-oxo-1,3-dihydro-isoindol-2-yl)-piperidine-2,6-dione is administered in a single or divided daily doses in an amount of from about 1 to about 100 mg/day. In another embodiment of the invention, 3-(4-amino-1-oxo-1,3-dihydro-isoindol-2-yl)-piperidine-2,6-dione is administered from about 1 to about 20 mg/day individually. The compound is administered to patients with PH for 12 weeks, who are subsequently evaluated for a decline in walk distance, dyspnea score, functional class, pulmonary hemodynamic response. The first study enrolls 32 patients with PH. Patients are all in modified New York Heart Association functional class III at the onset of the study. Patents are maximally treated and are stable on conventional therapy, including calcium channel antagonists and diuretics. Two thirds of patients receive 5 mg of 3-(4-amino-1-oxo-1,3-dihydro-isoindol-2-yl)-piperidine-2,6-dione for four weeks followed by 10 mg of the compound for eight weeks. One third of patients receive placebo. The primary efficacy endpoint is a 6-minute walk distance. Patients receiving the compound of the invention walk an average of 70 meters farther after 12 weeks while placebo patients have a decline in walk distance. In addition, the treated patients have improvements in dyspnea score and functional class compared with placebo patients. Pulmonary hemodynamic measurements reveal decreases in pulmonary arterial pressure and pulmonary vascular resistance, and increase in cardiac output after 12 weeks of the treatment, compared with worsening of pulmonary hemodynamics in placebo patients. All these changes in treated patients are highly significant compared with placebo.

patients with PH [2] = test: Expanded clinical study in PH patients, WHO functional class III or IV, 16 weeks; assay type: in vivo, human
Description: On the basis of the results of the above study 2, the clinical study is expanded with additional 213 PH patients for at least 16 weeks. The study is conducted with patients with PH, WHO functional class III or IV. Two hundred thirteen patients are randomized to receive either 5 mg bid or 10 mg bid of 3-(4-amino-1-oxo-1,3-dihydro-isoindol-2-yl)-piperidine-2,6-dione or placebo in a 1:1:1 ratio. The primary endpoint, a 6-minute walk distance, is evaluated at 16 weeks. The treated patients walk 36.4 meters further at 16 weeks compared to a 7.8 meter reduction in walk distance in the placebo group, for a treatment effect of 44.2 meters. Clinical worsening, defined by death, premature withdrawal from study, hospitalization for worsening of PH or institution of epoprostenol, occur in 37% of placebo-treated patients, compared with 11% of the patients treated with the compound of the invention.

[3] = system: production of various cytokines; test: In vitro pharmacological activity profile compared with thalidomide; assay type: cell-based; conditions: in vitro studies
Excerpt: The pharmacological properties of 3-(4-amino-1 -oxo-1,3-dihydro-isoindol-2-yl)-piperidine-2,6-dione, including activity comparisons with thalidomide, have been characterized in in vitro studies. Studies examined the effects of 3-(4-amino-1-oxo-1,3-dihydro-isoindol-2-yl)-piperidine-2,6-dione or thalidomide on the production of various cytokines.
The pharmacological effects of 3-(4-amino-1-oxo-1,3-dihydro-isoindol-2-yl)-piperidine-2,6-dione derive from its action as an inhibitor of cellular response to receptor-initiated trophic signals (e.g., IGF-1, VEGF, […]), and other activities. As a result, 3-(4-amino-1-oxo-1,3-dihydro-isoindol-2-yl)-piperidine-2,6-dione suppresses the generation of inflammatory cytokines, down-regulates adhesion molecules and apoptosis inhibitory proteins (e.g., cFLIP, clAP), promotes sensitivity to death-receptor initiated programmed cell death, and suppresses angiogenic response.

[4] = cited from earlier work

Row | SMILES | dyspnea score and functional class (patients with PH [1]; 12 weeks, compared with placebo patients) | cardiac output (patients with PH [1]; after 12 weeks of treatment) | pulmonary arterial pressure and pulmonary vascular resistance (patients with PH [1]; after 12 weeks of treatment) | 6-minute walk distance, average increase (patients with PH [1]; after 12 weeks, 5 mg for four weeks then 10 mg for eight weeks) | treatment effect on 6-minute walk distance versus placebo (patients with PH [2]; at 16 weeks) | 6-minute walk distance, increase (patients with PH [2]; at 16 weeks, 5 mg bid or 10 mg bid) | clinical worsening (death, premature withdrawal, hospitalization for worsening of PH or institution of epoprostenol), share of patients (patients with PH [2]; treated patients) | functional class (patients with PH [2]; treated versus placebo patients) | potency relative to thalidomide [3] | stability among forms in aqueous solvent systems [4]
1 | Nc1cccc2c1CN(C1CCC(=O)NC1=O)C2=O (stereo not shown) [3-(4-amino-1-oxo-1,3-dihydro-isoindol-2-yl)-piperidine-2,6-dione] | improvements | increase | decreases | 70 meters | 44.2 meters | 36.4 meters | 11% | improved significantly more | 50 to 2,000 times | 
2 | Nc1cccc2c1CN(C1CCC(=O)NC1=O)C2=O (stereo not shown) [Form E, 3-(4-amino-1-oxo-1,3 dihydro-isoindol-2-yl)-piperidene-2,6-dione] |  |  |  |  |  |  |  |  |  | most stable form
